From patent US20210386709A1, “COMPOSITIONS AND METHODS FOR SUPPRESSING MSUT2” (United States Government As Represented By The Department …, priority 2020, published 2021)

Assays:
MSUT2 ZF = target: T1, MSUT2 ZF (Homo sapiens, UniProt Q6PJT7); test: Fluorescence polarization assay of FAM-poly(A) RNA:MSUT2 ZF binding
T1 construct: Targeted construct consisted of the c-terminal end (dark blue and amino acids 601-736) of MSUT2; made in house; host or cells: E. coli BL21 (DE3)
T1 sequence (Q6PJT7 601-736): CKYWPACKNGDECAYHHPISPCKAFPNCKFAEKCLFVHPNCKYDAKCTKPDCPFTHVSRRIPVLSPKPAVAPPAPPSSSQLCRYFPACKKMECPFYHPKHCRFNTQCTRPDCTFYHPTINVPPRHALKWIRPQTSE
Protocol: Fluorescence Polarization Assay. […] 2 μL of compound was transferred for a final concentration of 10 μM. […] Fluorescence polarization was calculated by first subtracting background from a buffer-only control well and then using the equation
Results and Discussion. A high-throughput fluorescence polarization assay for inhibition of poly(A):MSUT2 RNA interaction. […] In order to screen potential inhibitors of MSUT2 RBP and RNA by FP, fluorescent FAM (fluorescein amidite)-labeled poly(A)15 RNA (FAM-RNA) and recombinant MSUT2 ZF (zinc finger) protein expressing constructs were generated (FIG. 7a). […] Inhibition of the interaction results in unbound FAM-RNA tumbling at a relatively rapid rate and emitting non-polarized light (FIG. 7b).
To determine the concentrations of both MSUT2 ZF protein and FAM-RNA probe useful in the methods described herein, a two dimensional titration of protein and RNA concentrations in 96-well format was performed. […] Next, the binding constant between MSUT2 ZF and FAM-RNA was determined by holding FAM-RNA constant at 10 nM while increasing MSUT2 ZF concentration.
(§1) Identification and validation of MSUT2 inhibitory compounds from NIHCC library. […] IC50 of each of the previous 8 compounds was determined for PABPN1 using fluorescence polarization (FIG. 11), and a specificity ratio determined (Table 3). An Alpha Screen (AS) assay was developed as an orthogonal screen. Briefly, in this screen, biotinylated RNA binds streptavidin-coated donor beads, while GST-MSUT2 ZF binds glutathione-coated acceptor beads. When donor beads and acceptor beads are brought within close proximity of one another, laser excitation leads to fluorophore emission of the acceptor bead via excited singlet oxygen activating chemiluminescers in the acceptor beads. […] Toxicity of these compounds in a HEK cell model was determined using a standard Promega Cell Titer Glo assay.
(§2) Fluorescence Polarization Assay. […] of stock compound was transferred yielding 10 μM final concentration. […] Fluorescence polarization was calculated by first subtracting background from a buffer-only control well and then using the equation

PABPN1 = target: T2, PABPN1 (Homo sapiens, UniProt Q86U42); test: PABPN1 fluorescence polarization counter screen; assay type: binding
T2 construct: made in house; host or cells: E. coli BL21 (DE3)
T2 sequence (Q86U42 1-306): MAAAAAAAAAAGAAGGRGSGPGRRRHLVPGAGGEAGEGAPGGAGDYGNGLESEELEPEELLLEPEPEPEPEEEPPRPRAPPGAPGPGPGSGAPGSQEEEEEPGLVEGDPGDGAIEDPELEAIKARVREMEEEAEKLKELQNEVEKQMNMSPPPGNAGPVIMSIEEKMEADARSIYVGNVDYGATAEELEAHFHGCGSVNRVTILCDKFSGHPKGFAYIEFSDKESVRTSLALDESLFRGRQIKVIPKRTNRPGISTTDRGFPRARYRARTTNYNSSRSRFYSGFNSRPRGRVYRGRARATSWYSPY
Protocol: A drug repurposing strategy: screening of the NIH Clinical Collection compound library. […] The plan to find suitable lead compounds for drug repurposing began with a screen of the NIH Clinical Collection (NIHCC) library. The NIHCC consists of a diverse array of 700 compounds with historical pharmacological use and well-studied safety profiles. […] An orthogonal poly(A):MSUT2 binding assay allowed the ruling out of assay interference while selectivity against MSUT2 over PABPN1 was determined by a parallel FP assay with PABPN1 as the RBP. […] Thus, the goal was to eliminate compounds interfering with both PABN1 and MSUT2 and focus on compounds truly specific for poly(A):MSUT2 binding.
as §1, §2

GST-MSUT2 = target: T3, GST-MSUT2 (Homo sapiens, UniProt Q6PJT7); test: Alpha Screen assay of biotinylated poly(A) RNA:GST-MSUT2 binding; conditions: orthogonal dose-response validation
T3 construct: Targeted construct consisted of the c-terminal end (dark blue and amino acids 601-736) of MSUT2; made in house; host or cells: E. coli BL21 (DE3)
T3 sequence (Q6PJT7 601-736): T1 sequence (Q6PJT7 601-736)
Protocol: Alpha Screen Assay. Samples were set up in 384 well Perkin Elmer white opaque-bottom plates (PE06). A total reaction volume of […] was plated in 384 format using a CyBio Well Vario (6 μL of donor beads (10 μg/mL), 3 μL biotinylated RNA (250 nM), 3 μL GST-MSUT2 protein (250 nM) per well). 50 nL of compounds were transferred to wells via CyBio Vario equipped with Pin Tool. This mixture was incubated at room temperature for 30 minutes away from light. Next 3 μL of acceptor beads (1.25 μg/mL) was added. Plates were incubated at room temperature away from light for 60 minutes and subsequently read on a Perkin Elmer EnVision multimode microplate reader equipped with stackers using a standard 384-well Alpha Assay software protocol.
Results. Alpha Screen design and underlying principle. Alpha Screen technology relies on donor beads, coated with a hydrogel excitable by 680 nm, brought within close proximity to an acceptor bead leading to light emission and detection. In this assay, streptavidin coated donor beads tightly bind to biotinylated-poly(A) RNA while the glutathione-coated acceptor bead binds to GST-tagged MSUT2 protein. […] When this interaction is blocked by an inhibitor, the proximity threshold for donor and acceptor beads is not met, singlet oxygen transference cannot occur, and light is not emitted by the acceptor bead (FIG. 1a).
Identification and validation of MSUT2 inhibitory compounds from NIHCC library. The single-point primary screen was conducted in duplicate and utilized the FP assay conditions determined herein (e.g., 125 nM MSUT2 RNABP and 10 nM FAM-RNA probe) with 10 μM library compounds added in a 96-well format. […] Compound specificity was empirically tested by counter screening against PABPN1, a regulator of the length of mRNA poly(A) tails (Apponi, L. H. et al. Hum Mol Genet 19, 1058-1065, (2010); and Benoit, B. et al. Dev Cell 9, 511-522, (2005)). IC50 of each of the previous 8 compounds was determined for PABPN1 using fluorescence polarization (FIG. 11), and a specificity ratio determined (Table 3). An Alpha Screen (AS) assay was developed as an orthogonal screen. Briefly, in this screen, biotinylated RNA binds streptavidin-coated donor beads, while GST-MSUT2 ZF binds glutathione-coated acceptor beads. […] Toxicity of these compounds in a HEK cell model was determined using a standard Promega Cell Titer Glo assay.
Alpha Screen Assay. […] The plate was then incubated again at room temperature away from light for 60 minutes and subsequently read on a Perkin Elmer EnSight multimode microplate reader using a standard 96-well Alpha Assay protocol.

[1] = in vivo; cited from earlier work
poly(A) = conditions: cited from earlier work
[2] = target: 3′,5′-cyclic phosphodiesterase; conditions: read-out: Ki (nM) for Known Target; cited from earlier work
elderly patients = conditions: 10 year study of 20,215 elderly patients; cited from earlier work
[3] = test system: rat model of chronic cerebral hypoperfusion; conditions: cited from earlier work

Row | Ki (MSUT2 ZF; calculated by Cheng Prusof equation Ki=(IC50)/[(L/Kd)+1], FP dose response, read-out: Ki (nm) for MSUT2) | IC50 (MSUT2 ZF; read-out: IC50MSUT2) | IC50 (PABPN1; fluorescence polarization counter screen, unit inferred, read-out: IC50PABPN1) | PABPN1/MSUT2 specificity ratio (PABPN1; ratio of FP IC50s) | Ki (nm) for MSUT2 (MSUT2 ZF; calculated by Cheng Prusof equation Ki=(IC50)/[(L/Kd)+1], FP dose response) | SMILES | inhibition activity by Alpha Screen (AS) (GST-MSUT2) | crossing of the blood brain barrier [1] | interaction with poly(A) (poly(A)) | Ki [2] | IC50PABPN1 (PABPN1; fluorescence polarization counter screen, unit not given) | risk of dementia (elderly patients) | neuronal loss in the hippocampus [3]
1 | 978 nM | 990 nM | 50600 nM | 51.07 | – | CC(C)/N=c1\cc2n(-c3ccc(Cl)cc3)c3ccccc3nc-2cc1Nc1ccc(Cl)cc1 [Clofazimine] | dose-dependent inhibition activity | unable to cross the blood brain barrier | little interaction | – | – | – | –
2 | – | – | – | – | failed DR | OCCN(CCO)c1nc(N2CCCCC2)c2nc(N(CCO)CCO)nc(N3CCCCC3)c2n1 [Dipyridamole] | – | – | – | 1000 nM | – | – | –
3 | – | – | – | – | – | CNCC[C@H](Oc1cccc2ccccc12)c1cccs1 [Duloxetine] | dose-dependent inhibition activity | – | – | – | None | associated with reduced risk of dementia | attenuated neuronal loss in the hippocampus
